Values quoted from earlier work in patent US20230009337A1, “Liberty Vitamins and Drinks” (priority 2021, published 2023).

Key:
[1] = molecular target: T1, TWIK2 potassium channels (Homo sapiens, UniProt Q9Y257); details: macrophage white blood cell; discovered by Dr. Jalees Rehman and Professor Asrar Malik, University of Illinois in Chicago
T1 construct: host or cells: macrophage white blood cell (as described in the diagram)
T1 sequence (Q9Y257 1-313): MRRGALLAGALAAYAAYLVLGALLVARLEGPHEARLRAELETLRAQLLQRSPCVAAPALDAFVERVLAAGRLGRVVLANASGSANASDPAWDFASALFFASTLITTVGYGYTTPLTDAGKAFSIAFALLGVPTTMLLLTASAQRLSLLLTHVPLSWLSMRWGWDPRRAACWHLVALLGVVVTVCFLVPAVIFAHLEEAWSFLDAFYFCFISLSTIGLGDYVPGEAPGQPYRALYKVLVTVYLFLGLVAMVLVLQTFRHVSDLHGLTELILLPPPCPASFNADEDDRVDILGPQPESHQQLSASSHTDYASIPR

[2] = system: mice; details: acetone/olive oil placed on the mice for 4 weeks

In the case of C=C[C@H]1C[N@@]2CC[C@H]1C[C@H]2[C@H](O)c1ccnc2ccc(OC)cc12 [Quinine], the “inhibition of TWIK2 channels” value [1] is given as “can inhibit” and the “loss of skin and flesh (skin inflammation)” value [2] is given as “did not have a loss of skin and flesh”.
